The source of these data is the Deep4Chem optical property database.

The series in a line: solvent given as SMILES.

Take `N#Cc1ccc(/C2=C3N=C(C(c4ccccc4)=C/3c3ccccc3)/C(c3ccc(C#N)cc3)=c3\[nH]/c(c(-c4ccccc4)c3-c3ccccc3)=C(/c3ccc(C#N)cc3)C3=N/C(=C(/c4ccc(C#N)cc4)c4[nH]c2c(-c2ccccc2)c4-c2ccccc2)C(c2ccccc2)=C3c2ccccc2)cc1`: the fluorescence lifetime (in ClCCl) was found to be 0.416 ns. The molecule `COC(=O)c1cc(=O)n(C)c2cc(-c3cc4c5c(c3)CCCN5CCC4)sc12` gave a fluorescence lifetime (in ClCCl) of 2.25 ns. For the setting “in ClC(Cl)Cl”, `c1ccc(N(c2ccccc2)c2ccc(-c3ccc(-c4ccc(-c5cccs5)c5nsnc45)s3)cc2)cc1` registered a fluorescence lifetime of 6.62 ns. With `CCc1cc(CC)cc(-n2c3ccccc3c3cc4c(cc32)c2ccccc2n4-c2cc(CC)cc(CC)c2)c1`, where the note is “in ClC(Cl)Cl”, the fluorescence lifetime turned out to be 3.69 ns.

Regarding `CC(C)(C)NC(=O)c1ccc(-c2cc3ccccc3s2)c2ccc3c4ccccc4c4ccccc4c3c12`, where the note is “in ClCCl”, the fluorescence lifetime was determined as 0.69 ns. For `N=c1oc2cccc3c4c(-c5ccccc5)oc5cccc(c(c1-c1ccccc1)c23)c54`, the fluorescence lifetime (in ClC(Cl)Cl) came out at 2.6 ns. The molecule `CCC1=C(C)C2=C(c3cc(C(=O)Cl)cc(C4=C5C(C)=C(CC)C(C)=[N+]5[B-](F)(F)n5c(C)c(CC)c(C)c54)c3)c3c(C)c(CC)c(C)n3[B-](F)(F)[N+]2=C1C` registered a fluorescence lifetime (in CN(C)C=O) of 4.1 ns. In turn, `c1ccc(N(c2ccccc2)c2ccc(-c3ccc4c(c3)C3(c5ccccc5Oc5ccccc53)c3cc(-c5ccc(N(c6ccccc6)c6ccccc6)cc5)ccc3-4)cc2)cc1` returned a fluorescence lifetime (in ClCCl) of 1.2 ns. In turn, `Cc1cc(C)c2nc3[nH]c(=O)[nH]c(=O)c3nc2c1` gave a fluorescence lifetime (in CC#N) of 1.65 ns.

Regarding `Cn1cccc1-c1cc(C#N)ccc1C#N`, the fluorescence lifetime came out at 13.1 ns (in C1CCOC1); 2.8 ns (in CC#N); 7.5 ns (in CCCCCC); 11.4 ns (in CCCCOCCCC); 12.6 ns (in CCOCC). Turning to `CCC1(CC)c2ccccc2-c2c1c1c(c3c2C(CC)(CC)c2cc(N(c4ccccc4)c4ccccc4)ccc2-3)C(CC)(CC)c2ccccc2-1`, the fluorescence lifetime (in C1CCOC1) was 1.6 ns.

Turning to `CC1=C(I)C(C)=[N+]2C1=C(c1c(-c3ccccn3)nc3ccccn13)c1c(C)cc(C)n1[B-]2(F)F`, the fluorescence lifetime (in ClCCl) stood at 0.3 ns. Molecule `c1ccc(/C(=C(\c2ccccc2)c2cc(-c3ccccc3)ccc2-c2ccc(-c3ccccc3)cc2)c2cc(-c3ccccc3)ccc2-c2ccc(-c3ccccc3)cc2)cc1` yielded a fluorescence lifetime (in C1CCOC1) of 7.9 ns. On to `CCOC(=O)/N=c1/oc2ccc(OC)cc2cc1C#N`, for which the fluorescence lifetime (in ClCCl) is 0.3 ns. With `C=Cc1cc2ccc(N(CC)CC)cc2oc1=O`, where the note is “in CC#N”, the fluorescence lifetime came out at 2.84 ns. In turn, `Nc1nc2c([nH]c(=O)n2[C@H]2C[C@H](O)[C@@H](CO)O2)c(=O)[nH]1` had a fluorescence lifetime (in O) of 0.0008 ns. `Cc1cc(C)c(B(c2ccccc2N2c3ccccc3Oc3ccccc32)c2c(C)cc(C)cc2C)c(C)c1`: for the setting “in Cc1ccccc1”, the fluorescence lifetime is 62 ns. Take `O=C1/C(=C2\Sc3ccc(S(=O)(=O)Nc4ccccc4)cc3C2=O)Sc2ccc(S(=O)(=O)Nc3ccccc3)cc21`: the fluorescence lifetime reads like this: (in C1COCCO1) 6.06 ns; (in CO) 0.13 ns; (in CS(C)=O) 0.12 ns.

`COC(=O)c1ccc(C2=C(/C=C/c3ccc(OC)cc3)O[B-](F)(F)[O+]=C2/C=C/c2ccc(OC)cc2)cc1` came in with a fluorescence lifetime (in ClCCl) of 1.34 ns. `c1ccc([B-]2(c3ccccc3)Oc3ccc4ccccc4c3-c3c4ccccc4cc[n+]32)cc1` returned a fluorescence lifetime (in Cc1ccccc1) of 9.47 ns. On to `CCCCCCCCCCCCOc1cc2c3c(ccc4c5c(SCCCCCCCCCCCC)cc6c7c(ccc(c1c34)c75)C(=O)N(C1CCCCC1)C6=O)C(=O)N(C1CCCCC1)C2=O`, for which the fluorescence lifetime (in ClC(Cl)Cl) turned out to be 7.8 ns.

`CC[n+]1c(C=C2C(=O)C(C=C3N(C)c4ccc(Cl)cc4C3(C)C)=C2[O-])sc2ccccc21` gave a fluorescence lifetime (in CO) of 0.26 ns and a fluorescence lifetime (in ClC(Cl)Cl) of 1.65 ns. In turn, `CCCCc1cc(-c2cccc(COC)c2)oc1-c1cccc(-c2cc(CCCC)c(-c3cccc(-c4oc(-c5cccc(-c6oc(-c7cccc(COC)c7)cc6CCCC)c5)cc4CCCC)c3)o2)c1` showed a fluorescence lifetime (in ClC(Cl)Cl) of 1.35 ns.

Take `COc1cccc(OC)c1C1=C2C(C)=CC(C)=[N+]2[B-](F)(F)n2c(C)cc(C)c21`: the fluorescence lifetime by setting is: (in C1CCOC1) 5.77 ns; (in CCCCCC) 6.26 ns. As for `CC1=CC(c2ccc3ccccc3c2)=[O+][B-]2(OC(=O)C(=O)O2)O1`, the fluorescence lifetime stood at 18.8 ns (in CC#N) and 5.1 ns (in ClC(Cl)(Cl)Cl).

With `Nc1ccccc1`, the fluorescence lifetime (in C1CCCCC1) turned out to be 3.4 ns. On to `CCN(CC)c1ccc2c(c1)OC1=CC(N(CC)CC)C=CC1[C+]2c1ccccc1C(=O)O` (stereo not given), for which the fluorescence lifetime is 2.69 ns (in CC(C)O); 3.18 ns (in CCCCCCCCO); 3.09 ns (in CCCCCCO); 2.98 ns (in CCCCO); 2.79 ns (in CCCO); 2.45 ns (in CCO). In addition, the fluorescence lifetime is, setting by setting: (in CO) 2.15 ns; (in O) 1.52 ns; (in [2H]O[2H]) 1.64 ns.

Consider `F[B-]1(F)OC(c2cc3c4c(c2)CCCN4CCC3)=Cc2cccc[n+]21`, for which the fluorescence lifetime (in ClC(Cl)Cl) was 3.19 ns. On to `COc1cc2c(cc1-c1ccc(Cl)cc1)Cc1c3c(c4c(c1-2)-c1cc(OC)c(-c2ccc(Cl)cc2)cc1C4)C(=O)N(CCC(C)C)C3=O`, for which, for the setting “in C1CCOC1”, the fluorescence lifetime was found to be 3.05 ns. Where the note is “in CC#N”, `O=[N+]([O-])c1ccc(/C=C/c2nc3c4ccccc4c4ccccc4c3o2)cc1` showed a fluorescence lifetime of 3.01 ns. Consider `CCN(CC)c1ccc2cc3ccc(=[N+](CC)CC)cc-3oc2c1`, for which the fluorescence lifetime is, setting by setting: (in CC#N) 4.18 ns; (in CCO) 3.89 ns; (in CN(C)C=O) 3.87 ns; (in O) 4.07 ns. The molecule `Cc1ccc2c(c1)c(=O)c1ccccc1n2CCCCCC(=O)O` registered a fluorescence lifetime (in O) of 15.1 ns. `CCc1c(C)[nH]c(C2=[N+]3C(=C(C)c4c(C)c(CC)c(C)n4[B-]3(F)F)c3ccccc32)c1C` showed a fluorescence lifetime (in ClCCl) of 6.21 ns. The molecule `CC(=O)Nc1cc2ccc3cccc4ccc(c1)c2c34` had a fluorescence lifetime (in CCCCCCC) of 108 ns.

`CCCCn1c(-c2ccc(-c3nnc(-c4ccc5ccccc5c4)o3)cc2)nc2c3ccccc3c3ccccc3c21` yielded a fluorescence lifetime (in ClCCl) of 1.78 ns. For `C[Si](C)(C)c1cccc2ccccc12`, the fluorescence lifetime (in C1CCCCC1) worked out at 64 ns. In the case of `O=C1c2ccccc2-c2c(-c3ccccc3)c(-c3ccccc3)c(-c3ccccc3)c3cccc1c23`, the fluorescence lifetime stood at 0.6 ns (in CC#N) and 9.2 ns (in CO). The molecule `CCCCC(CC)CN1C(=O)C2=C(c3ccc(-c4ccc(C5=C6C(C)=CC(C)=[N+]6[B-](F)(F)n6c(C)cc(C)c65)cc4)s3)N(CC(CC)CCCC)C(=O)C2=C1c1cccs1` (stereo not given) came in with a fluorescence lifetime (in Cc1ccccc1) of 3.87 ns.

`CC(=O)Nc1ccc(S(=O)(=O)O)c(/N=N/c2c(O)c3ccccc3n(C)c2=O)c1` displayed a fluorescence lifetime (in CS(C)=O) of 0.06 ns. Take `COc1ccc2cc(C#N)c(=N)oc2c1`: the fluorescence lifetime (in ClCCl) is 2.5 ns. Turning to `O=C1OC(=O)c2ccc(N(c3ccccc3)c3ccc4ccccc4c3)c3cccc1c23`, the fluorescence lifetime was 1.09 ns (in C1CCOC1), 8.42 ns (in CCCCCC) and 8.55 ns (in c1ccccc1). Molecule `C[Si](C)(C)C#CC(C#C[Si](C)(C)C)=Cc1ccc(C=C(C#C[Si](C)(C)C)C#C[Si](C)(C)C)cc1` gave a fluorescence lifetime (in ClC(Cl)Cl) of 0.6 ns. Consider `CCCCCCCCC1(CCCCCCCC)c2ccccc2-c2ccc(-c3nnc(-c4cccc(-n5c6ccc(C(C)(C)C)cc6c6cc(C(C)(C)C)ccc65)c4)o3)cc21`, for which the fluorescence lifetime (in Cc1ccccc1) was 7.65 ns.

In turn, `O=C(O)c1ccccc1Nc1cccc(C(F)(F)F)c1` displayed a fluorescence lifetime (in C1CCCCC1) of 2.93 ns; a fluorescence lifetime (in C1CCOC1) of 4.54 ns; a fluorescence lifetime (in C1COCCO1) of 3.97 ns; a fluorescence lifetime (in CC#N) of 4.04 ns; a fluorescence lifetime (in CCOC(C)=O) of 4.65 ns; a fluorescence lifetime (in CN(C)C=O) of 6.28 ns. Besides, the fluorescence lifetime was determined as 5.08 ns (in CO) and 3.86 ns (in ClC(Cl)Cl). As for `COC(=O)c1ccc(-c2ccc3c(c2)C(=O)c2cc(-c4ccc(C(=O)OC)cc4)ccc2-3)cc1`, where the note is “in C1CCOC1”, the fluorescence lifetime is 2.3 ns. Molecule `CC(C)(C)NC(=O)c1cc2ccc3cccc4ccc(c1C(=O)NC(C)(C)C)c2c34` yielded a fluorescence lifetime (in ClC(Cl)Cl) of 17.2 ns. For the molecule `Cc1ccc(-c2ccc(/C=C/c3ccc(F)cc3)cn2)nc1`, for the setting “in CC#N”, the fluorescence lifetime came to 0.99 ns.

As to `CCc1ccc(/C=C/c2ccc(-c3nnc(-c4ccc(-c5cc6ccccc6s5)cc4)o3)cc2)cc1`, the fluorescence lifetime reads like this: (in Cc1ccccc1) 0.56 ns; (in ClC(Cl)Cl) 0.61 ns.

Take `c1ccc(-c2cc(-c3ccc(-c4nc(-c5ccccn5)c(-c5ccccn5)[nH]4)cc3)cc(-c3ccccn3)n2)nc1`: the fluorescence lifetime runs as follows: (in C1CCOC1) 1.46 ns; (in CC#N) 1.44 ns; (in CC(C)=O) 1.09 ns; (in CCCCCC) 0.065 ns; (in CCO) 2.04 ns; (in CCOC(C)=O) 1.18 ns. In addition, the fluorescence lifetime worked out at 1.91 ns (in CN(C)C=O); 1.41 ns (in CO); 2.04 ns (in CS(C)=O); 1.19 ns (in ClC(Cl)Cl); 3.43 ns (in ClCCl); 2.39 ns (in O).

In turn, `c1ccc(N2c3ccccc3Sc3cc(-c4cccc5nc6ccccc6cc45)ccc32)cc1` returned a fluorescence lifetime (in CC#N) of 7.58 ns, a fluorescence lifetime (in CCCCCC) of 2.05 ns, a fluorescence lifetime (in CCOCC) of 3.96 ns and a fluorescence lifetime (in ClCCl) of 3.32 ns.

With `Cc1cc(-c2nc(-c3ccccc3)nc(-c3ccccc3)n2)ccc1-n1c2ccccc2c2cc3c(cc21)C1c2ccccc2C3c2ccccc21`, the fluorescence lifetime (in O=P(c1ccccc1)(c1ccccc1)c1ccccc1Oc1ccccc1P(=O)(c1ccccc1)c1ccccc1) worked out at 10.6 ns. With `CC1(C)c2ccccc2N(c2ccc(C(=O)c3cc(C(=O)c4ccc(N5c6ccccc6C(C)(C)c6ccccc65)cc4)cc(C(=O)c4ccc(N5c6ccccc6C(C)(C)c6ccccc65)cc4)c3)cc2)c2ccccc21`, the fluorescence lifetime runs as follows: (in Cc1ccccc1) 16.7 ns; (in c1ccc2c(c1)c1ccccc1n2-c1ccc(-c2ccc(-n3c4ccccc4c4ccccc43)cc2)cc1) 25.8 ns. In the case of `CC1=[N+]2C(=C(NC(C)c3ccccc3)c3ccc(C)n3[B-]2(F)F)C=C1c1cc2n(c1)[B-](F)(F)[N+]1=CC=CC1=C2c1c(C)cc(C)cc1C` (stereo not given), the fluorescence lifetime (in C1CCCCC1) came out at 2.07 ns and the fluorescence lifetime (in CCOC(C)=O) is 0.52 ns.
